The source of these data is US7288273B1, “Gallotannins and ellagitannins as regulators of cytokine release” (The Penn State Research Foundation, priority 2000, dated 2007).

Assay [1] relates to TNF-α secretion from h-PBMC's. The assay is described as follows: TNF-α release from h-PBMC's, ELISA. The conditions noted are these: for TNF-α secreted in the presence of 17c-21c: 24 hours, ± SD. The format is cell-based, human. How it is done:
(§1) Authentic samples of agrimoniin and coriariin A were supplied by Professor Yoshida (Okayama University, Japan). Dimeric gallotannin (analog of coriariin A) and β-D-PGG were synthesized as described. LPS (E. coli 055:B5 phenol extract, MW range 50-100 KD). Ficoll-Histopaque (ρ=1.077 g/mL), Fetal Bovine Serum, sterile, hybridoma tested (FCS), gentamicin 10 mg/mL. L-glutamine, 200 mM. Dextran B-512 Leuconostoc Av M.W. 580000, and Trypan Blue stain were purchased from Sigma. Hanks Buffer Saline Solution 1×, with phenol red, mediatech (HBSS) and RPMI 1640 1×, mediatech were purchased from Fisher Scientific, Human IL-1β and TNF-α Enzyme Linked ImmunoSorbent Assay (ELISA) kits were purchased from R and D Systems, Minneapolis, Minn. Fresh heparinized blood was obtained from health human subjects (ages 20-34).
(§2) Dose-Response Data: General Procedure. H-PBMC's were isolated by reported procedures (10. 18). The cells counted and the viability was determined by Trypan Blue exclusion (typically, viability exceeded 95%). The concentration of the cells in the 0.5 mL wells was adjusted to 1×10^6 cells/well by diluting with the required amount of RPMI.
(§3) The appropriate amount of a tannin (or LPS) stock solution in HBSS was added to each well to furnish the concentration values reported in the Figures. […] The culture plates were incubated in a 5% CO2, 37° C. humidified incubator for the indicated time. At the end of the time interval, 450 μL of the culture supernatant from each well was harvested, after centrifugation at 400 g, 25° C., 10 min. with brake, and stored at −78° C. pending ELISA analysis for the cytokine(s). The ELISA assays were conducted per the manufacturer's instructions using standard calibration curves to calculate cytokine concentration from observed absorbance readings. The cytokine values reported are averages of three runs±SE.
(§4) The dimeric antitumor ellagitannins coriariin A and agrimoniin, the monomeric gallotannin β-D-pentagalloylglucose (β-D-PGG) and the dimeric gallotannin of this invention were all examined in this study. The dimeric gallotannin is an analog of coriariin A and is identical to the parent ellagitannin except that the galloyl rings at O(4) and O(6) are not joined in a hexahydroxydiphenoyl (HHDP) linkage. h-PBMC's were incubated with the compound under investigation for the indicated length of time and the amounts of both IL-1β and, independently, TNF-α, present in the culture supernatants was determined using commercially available ELISA kits. In each case, LPS was used as a positive control while untreated cells were reserved as negative controls.
In the first study, the induction of TNF-α secretion from h-PBMC's in the presence of each compound 17c-21c was measured. The h-PBMC's were incubated with each compound for 24 hours. The TNF-α levels in the cell culture supernatant were assayed by Enzyme Linked ImmunoSorbant Assay (ELISA). The data point for each assay represent the mean of triplicate measurements. […] (See FIG. 11).
(In general: In an ELISA, binding on a coated surface is turned into a signal by an enzyme label.)

The next assay relates to sarcoma-180 tumors. The conditions noted are these: mice infected with sarcoma-180 tumors; cited from earlier work.
Assay [2] concerns IL-1β secretion from h-PBMC's. The assay is described as follows: IL-1β release from h-PBMC's, ELISA. It is filed as cell-based, human. The note with it: h-PBMC's 2nd subject, ± SD. How it is done: as §1, §2, §3, §4
In the third study, compounds 17c-20c were examined for their ability to induce secretion of IL-1β from h-PBMC's (FIG. 16). Recall from the introduction that the cytokine IL-1β is also released in an LPS-stimulated septic shock response. The compounds that cause very little secretion of IL-1β or none at all will be the optimal compounds for potential septic shock therapeutics because they will be less likely themselves to induce a septic shock response.

Assay [3] concerns LPS induced TNF-α secretion from h-PBMC's. Briefly: Inhibition of LPS induced TNF-α secretion from h-PBMC's. It is filed as cell-based, human. The note with it: LPS 5 μg/mL; for TNF-α secreted in the presence of LPS and 17c-20c: compound 10 μg/mL added after 45 minutes, h-PBMC's 3rd subject, ± SD. How it is done:
In the second study, the ability of compounds 17c-20c to inhibit LPS induced TNF-α production in h-PBMC's was investigated using four assays. The first experiment was a kinetics run in which the h-PBMC's were initially incubated with a fixed concentration of LPS (5 μg/mL) for 45 minutes. This incubation period was followed by addition of a fixed concentration (10 μg/mL) of compounds 17c-20c. The cells were harvested at varying intervals of time. […] The optimal time was determined by comparing the amount of TNF-α secreted by LPS alone to the amount of TNF-α secreted by LPS and substrate at each time point.
The second assay determined the minimum amount of substrate required for inhibition. LPS (10 μg/mL) was incubated with h-PBMC's for 45 minutes followed by addition of 17c-20c at varying concentrations. The cell culture supernatant was harvested after 8 hours. The inherent variability in using cells from different subjects, or in the day of assay, made it difficult to compare overall effectiveness of inhibitors. Therefore, to more easily identify the concentration at which maximum inhibition occurs for a given compound, the TNF-α secretion was normalized by calculating a percent of maximum secretion value (based on LPS alone) (FIG. 13). […] The optimal concentration for inhibition varied between substrates, but the general dose response trend was the same. Overall, the maximum inhibition was 45% for 18c and 20c, and 25% for 19c.
The third assay investigated the ability of 17c, 18c, and 20c to inhibit LPS induced TNF-α secretion using a smaller dosage of LPS (5 μg/mL) (FIG. 14). Again, the response was dose dependent. The maximum inhibition was 45% for 17c and 20c, and 35% for 18c.
In the fourth assay the varying concentrations of substrates 17c-20c and LPS were added at the same time to determine the effect of addition sequence on the inhibition of TNF-α secretion (FIG. 15). The addition time seemed to make a difference in the overall dose response trend. However, maximum inhibition was the same as when the compounds were added 45 minutes after LPS addition (about 40% for each compound).
Finally, in the last study, analogs 19c and 20c were again tested for inhibition LPS induced TNF-α secretion (FIG. 17). In this assay a smaller dose of LPS was used to determine if inhibition was greater when much lower doses of LPS were present. The substrates were added 45 minutes after LPS addition and the cells were harvested after 8 hours. It doesn't appear as though the substrates are better inhibitors when smaller amounts of LPS are used, again perhaps reflecting receptor saturation with LPS at this dosage.

Take “1,1′-2,2′,3,3′,4,4′,6,6′-Tetrakis(3,4,5-trihyroxybenzoyl)-β,β′-D,D′-glucopyranosyl-(2,3′-oxy-di-benzoate) [Compound 21c]”: in assay [1], the “TNF-α secretion from h-PBMC's, in words” value is recorded as “significant amount of TNF-α secretion”. Further, the “TNF-α secreted in the presence of 17c-21c” value (“TNF-α secreted … of 17c-21c” below) stood at 140.7 ± 50.1 pg/mL in assay [1] (compound 0.6 μM); 80.3 ± 38.1 pg/mL in assay [1] (compound 2.8 μM); 61.9 ± 11.7 pg/mL in assay [1] (compound 5.6 μM); 96.2 ± 8.9 pg/mL in assay [1] (compound 11.2 μM); 379.3 ± 156.6 pg/mL in assay [1] (compound 16.8 μM); 618.0 ± 182.0 pg/mL in assay [1] (compound 22.3 μM). For the same compound, the “TNF-α secreted … of 17c-21c” value in assay [1] (compound 27.9 μM) amounted to 899.0 ± 368.4 pg/mL.
Take `O=C(OC1O[C@@H]2COC(=O)c3cc(O)c(O)c(O)c3-c3c(cc(O)c(O)c3O)C(=O)O[C@H]2[C@H](OC(=O)c2cc(O)c(O)c(O)c2)[C@H]1OC(=O)c1cc(O)c(O)c(O)c1)c1cc(O)c(O)c(O)c1` (stereo partly drawn) [Compound 2, tellimagrandin II]: in the assay on sarcoma-180 tumors, the “antitumor effect, in words” value is “much less effective antitumor agents”.
Turning to `O=C(OC[C@H]1O[C@@H](OC(=O)c2ccc(C(=O)O[C@@H]3O[C@H](COC(=O)c4cc(O)c(O)c(O)c4)[C@@H](OC(=O)c4cc(O)c(O)c(O)c4)[C@H](OC(=O)c4cc(O)c(O)c(O)c4)[C@H]3OC(=O)c3cc(O)c(O)c(O)c3)cc2)[C@H](OC(=O)c2cc(O)c(O)c(O)c2)[C@@H](OC(=O)c2cc(O)c(O)c(O)c2)[C@@H]1OC(=O)c1cc(O)c(O)c(O)c1)c1cc(O)c(O)c(O)c1` [Compound 17c, 1,1′-O-2,2′,3,3′,4,4′,6,6′-Tetrakis(3,4,5-trihydroxybenzoyl)-β,β′-D,D′-glucopyranosylterephthalate], the “IL-1β secreted in the presence of 17c-20c” value in assay [2] (compound 0.6 μM) was determined as 0 pg/mL; in assay [2] (compound 2.9 μM), 0 pg/mL; in assay [2] (compound 5.9 μM) it was 3.2 ± 3.6 pg/mL; in assay [2] (compound 11.8 μM), 329.7 ± 443.0 pg/mL; in assay [2] (compound 17.6 μM), 140.5 ± 195.6 pg/mL; in assay [2] (compound 23.5 μM), 630.6 ± 283.1 pg/mL. The “IL-1β secreted in the presence of 17c-20c” value in assay [2] (compound 29.4 μM) is reported as 690.1 ± 101.0 pg/mL. Moreover, the “TNF-α secreted … of 17c-21c” value in assay [1] (compound 0.6 μM) stood at 0 pg/mL; in assay [1] (compound 2.9 μM), 0 pg/mL; in assay [1] (compound 5.9 μM), 0 pg/mL; in assay [1] (compound 11.8 μM) it was 0.26 ± 0.37 pg/mL; in assay [1] (compound 17.6 μM), 0 pg/mL; in assay [1] (compound 23.5 μM) it was 0.26 ± 0.37 pg/mL. In assay [1] (compound 29.4 μM), the “TNF-α secreted … of 17c-21c” value came out at 2.5 ± 3.5 pg/mL. For the same compound, the “TNF-α secreted in the presence of LPS and 17c-20c” value is given as 511.2 ± 288.3 pg/mL in assay [3] (time 1 h); 1896.3 ± 140.9 pg/mL in assay [3] (time 4 h); 2477.0 ± 148.2 pg/mL in assay [3] (time 8 h); 2574.4 ± 459.9 pg/mL in assay [3] (time 12 h); 1811.6 ± 352.9 pg/mL in assay [3] (time 16 h); 2266.1 ± 353.3 pg/mL in assay [3] (time 24 h). Further, in assay [3] (3rd subject), the “maximum inhibition of LPS induced TNF-α secretion” value worked out at 45%.
As to `O=C1OC[C@H]2OC(O)[C@@H]3OC(=O)c4cc(O)c(O)c(O)c4-c4c(cc(O)c(O)c4O)C(=O)O[C@H]3[C@@H]2OC(=O)c2cc(O)c(O)c(O)c2-c2c1cc(O)c(O)c2O` (stereo partly drawn) [pedunculagin], the “antitumor effect, in words” value with sarcoma-180 tumors is reported as “much less effective antitumor agents”.
Consider `O=C(O[C@H]1[C@@H]2OC(=O)c3cc(O)c(O)c(O)c3-c3c(cc(O)c(O)c3O)C(=O)OC[C@H]2OC(O)[C@@H]1OC(=O)c1cc(O)c(O)c(O)c1)c1cc(O)c(O)c(O)c1` (stereo partly drawn) [tellimagrandin I], for which the “antitumor effect, in words” value in the assay with sarcoma-180 tumors is recorded as “much less effective antitumor agents”.
In the case of gemin A, the “antitumor effect, in words” value with sarcoma-180 tumors is recorded as “induce tumor regression”.
